Results published in US20210386668A1, “Cyclodextrin for use in the treatment and prevention of late phase bronchoconstriction in allergen-induced asthma” (Universite de Liege, priority 2020, published 2021).

Tested on: healthy subjects
Assay: Phase 1 clinical trial, single and multiple HPBCD inhalation
Format: in vivo, human
From the text: Clinical trial protocols have been approved by an independent ethical committee (CHU Liege—University of Liege) in accordance with GCPs, Declaration of Helsinki and European regulations (EudraCT). All participants gave written informed consent before any study-specific procedure. For the phase 1 clinical trial, 8 healthy subjects (4 women and 4 men) from 18 to 40 years were recruited and enrolled in the study at the University Hospital of Liege (Belgium). Patients were randomized and received first the placebo (NaCl 0.9%) or HPBCD at 2.5 mM and 8 days after, the opposite treatment. After 1 week, all patients received HPBCD at 15 mM. One month later, all patients received HPBCD at 15 mM during 5 consecutive days. Apyrogenic and sterile HPBCD powder was diluted with NaCl 0.9% before inhalation (8 ml) with an ultrasonic nebulizer (Devilbiss 2000). General symptoms, asthma scores (ACQ), dyspnea, chest Rx, clinical biology, ECG, vital signs, spirometry, NO, sputum (induced by NaCl 4.5%) were analyzed after treatment periods. The second clinical trial (phase 2a-proof of concept) was a double-blinded, cross-over, placebo-controlled study. 17 mild to moderate asthmatic patients were included in the study at two different sites (University Hospital of Liege and University Hospital Erasme) in Belgium. Characterization visits consisted of dyspnea symptoms recording, ECG, chest Rx, clinical biology, spirometry and vital signs analysis. PD20 (provocative dose that causes a 20% fall in FEV1 from the saline alone value) to inhaled allergen was determined. […] The PD20 of the allergen was calculated from a cumulative dose-response curve, as described previously, Cataldo et al., Matrix metalloproteinase-9, but not tissue inhibitor of matrix metalloproteinase-1, increases in the sputum from allergic asthmatic patients after allergen challenge, Chest. 2002; 122(5):1553-9. All […] received a cumulative concentration of Dermatophagoides pteronyssinus with a reactivity index of 6. After 14 days wash-out period, patients were randomly divided into two groups and received either HPBCD 15 mM or Placebo (NaCl 0.9%) by inhalation (ultrasonic nebulizer (Devilbiss 2000)) twice daily. At the end of this treatment period, lung function (FEV1) was analyzed after allergen (HDM) challenge under the supervision of experienced respiratory clinical physiologists. FEV1 was measured after allergen inhalation challenge at 5, 15, 30, 60, 120, 180, 240, 300 and 360 min. After 28 days wash-out period, patients received the opposite treatment for another 14 days and the FEV1 following allergen challenge was evaluated. All clinical parameters were examined after each treatment period. The endpoint of this proof of concept study was changes in FEV1 over 0-360 min post-allergen challenges. FEV1 in early phase (0-60 min) and late phase (180-360 min) were expressed as: area under the FEV1-versus-time curve (AUC), maximum percentage fall and average percentage fall (calculated by dividing the area under the curve of the percentage fall in FEV1 by the duration of the response period). One patient who received placebo had negative maximum FEV1 decrease and negative average percentage fall in FEV1. These negative values were truncated to 0. Patients had access to […] (salbutamol 100 μg) throughout the study as an «as needed» treatment.
Data are presented as mean±SEM unless specified. The differences between mean values were estimated using a two-tailed Mann-Whitney test (animal and in vitro experiments) unless specified. All animal experiments were repeated at least 2 times; n 6 in each experimental group. ANOVA Friedman test (single dose) and Wilcoxon signed rank test (multiple doses) were used to analyze results obtained during the phase 1 clinical trial. One-tailed Wilcoxon matched pairs test was used to evaluate intra-individual differences in the proof of concept clinical trial. A P value less than 0.05 was considered significant. […]

[1] = multiple dose HPBCD 15 mM, after 5 days inhalation
[2] = multiple dose HPBCD 15 mM, after 5 days inhalation, mean ± SD
[3] = single dose, HPBCD 2.5 mM, mean ± SD
[4] = single dose, HPBCD 15 mM, mean ± SD

CC(O)COC[C@H]1O[C@@H]2O[C@H]3[C@H](O)[C@@H](O)[C@@H](O[C@H]4[C@H](O)[C@@H](O)[C@@H](O[C@H]5[C@H](O)[C@@H](O)[C@@H](O[C@H]6[C@H](O)[C@@H](O)[C@@H](O[C@H]7[C@H](O)[C@@H](O)[C@@H](O[C@H]8[C@H](O)[C@@H](O)[C@@H](O[C@H]1[C@H](O)[C@H]2O)O[C@@H]8COCC(C)O)O[C@@H]7COCC(C)O)O[C@@H]6COCC(C)O)O[C@@H]5COCC(C)O)O[C@@H]4COCC(C)O)O[C@@H]3COCC(C)O (stereo partly drawn) [HPBCD, 2-hydroxypropyl-beta-cyclodextrin]
Eosinophils (sputum) 5 h after inhalation [1]: 0.00%
QT [1]: 393.50 ms
QtTc [1]: 393.30 ms
FEV1 15 min after inhalation [2]: 4.13 ± 0.87 L
FEV1 1 h after inhalation [2]: 4.07 ± 0.82 L
FEV1 3 h after inhalation [2]: 4.11 ± 0.87 L
FEV1 5 h after inhalation [2]: 4.1 ± 0.87 L
No measurements (ppb) 15 min after inhalation [2]: 25.16 ± 9.76 ppb
Eosinophils (sputum) 5 h after inhalation [3]: 0.00 ± 0.00%
FEV1 15 min after inhalation [3]: 4.08 ± 0.87 L
FEV1 1 h after inhalation [3]: 4.11 ± 0.83 L
FEV1 3 h after inhalation [3]: 4.1 ± 0.82 L
FEV1 5 h after inhalation [3]: 4.11 ± 0.87 L
No measurements (ppb) 15 min after inhalation (single dose, HPBCD 2.5 mM, mean ± SD, n = 8): 23.85 ± 7.56 ppb
Eosinophils (sputum) 5 h after inhalation [4]: 0.20 ± 0.49%
FEV1 15 min after inhalation [4]: 4.01 ± 0.87 L
FEV1 1 h after inhalation [4]: 4.04 ± 0.86 L
FEV1 3 h after inhalation [4]: 4.07 ± 0.85 L
FEV1 5 h after inhalation [4]: 4.08 ± 0.92 L
No measurements (ppb) 15 min after inhalation (single dose, HPBCD 15 mM, mean ± SD, n = 8): 28.48 ± 17.92 ppb
